Two compounds from patent US10500198B2, “Bis-benzylidine piperidone proteasome inhibitor with anticancer activity” (The Johns Hopkins University, priority 2013, dated 2019) can be followed below.

One assay concerns the target T1, RPN13 (Homo sapiens, UniProt Q16186).
T1 construct: endogenous in cells; host or cells: HeLa, HS578T cell lysate
Briefly: Biotin labeling assay. The format is binding. The following applies: cell lysate or purified RP, streptavidin-peroxidase blot. As to the method: FIGS. 10 A-10E show a series of graphs and immunoblots showing the effects of several compounds on cell viability and proteasome activity. […] 10B and 10C show immunoblots of the proteasome activity of cell lines treated with the indicated compounds. […] IC50 values were determined in triplicate. In FIG. 10B, HeLa cells were treated for 12 hr and the cell lysate was subjected to immunoblot analysis with anti-Ubiquitin antibody. In FIG. 10C, SiHa cells were treated with the indicated compounds for 12 hr and the lysate subjected to Western blot analysis with anti-Ubiquitin antibody. HeLa cell lysate was treated with RA190B, subjected to SDS-PAGE, and probed with streptavidin-peroxidase following protein transfer to a polyvinylidene difluoride (PVDF) membrane. The streptavidin-peroxidase bound to biotinylated cellular proteins, but a striking new band at 42 kDa appeared in RA190B-treated samples (FIG. 2A). […] IC50 values were determined in triplicate.
To eliminate the possibility that another RP component was required for RA190B interaction, RPN13 or an irrelevant protein (L2) was overexpressed in bacteria. Cell lysate harvested from bacteria either with or without […] induction of ectopic protein expression was labeled with RA190B and probed by blotting with streptavidin-peroxidase. RA190B reacted strongly with a 42 kDa protein only in lysates of bacteria expressing RPN13 (FIG. 2D). […] 800 μL fractions were collected and alternate fractions (1,3,5,7,9,11,13,15,17) were analyzed for the presence of proteasomal proteins (RPN13, RPN2, RPN1 and UCH37) by Western blot analysis.
Human cells (5×10^6 HeLa or 293TT cells) were lysed using MPER (Pierce) lysis buffer (500 μL). RPN13 or HPV L2 transformed bacterial cells (500 μL of culture) were centrifuged to harvest the cells which were re-suspended in 500 μL BPER (Pierce). Cell lysates were centrifuged at 10,000 rpm briefly (2 min) at 4° C. to remove cell debris. Lysate supernatant (200 μL) was pre cleared with streptavidin dyna beads (20 μL) for 1 h at 4° C. to remove non-specific biotin binding and incubated with compounds (indicated concentrations or 20 μM) at 4° C. for 1 hr. An equal amount of each sample (20 μL of lysate) was mixed with an equal volume of Laemmli sample buffer (20 μL) (BioRad) and was boiled for 5 min. […] (24 V). Membrane was blocked with 5% BSA in PBST for 1 hr at room temperature and washed for 20 min (3×PBST). Then the membrane was probed with HRP-streptavidin (1:10,000 in PBST) for 1 hr at room temperature and washed for 30 min (3×PBST) and developed using HyGLO chemiluminescent detection reagent (Denville) for biotin recognition. For the purified enzyme assay, 19S purified proteasome (R&D Systems, Cat. No. E-366) (500 ng) in 19S buffer (20 mM HEPES, 20 mM NaCl, 1 mM DTT, 15% Glycerol) was incubated with compounds (20 μM) for 1 hr at room temperature and mixed with an equal volume of Laemmli sample buffer (20 μL) (BioRad) and was boiled for 5 min. Each sample was loaded onto gel and followed the western blot protocol mentioned above.
Purified 19S proteasome (500 ng) was incubated with corresponding compounds for 30 min and subjected to immunoblot and probed with HRP-conjugated streptavidin. In FIG. 23, the single band at 42 KDa indicates Rpn13 binding to 195. RA183B (20 μM) is used as positive control for Rpn13 binding. Competition experiments were done with RA183 (100 μM) and RA195 (100 μM) along with RA195B (20 μM).

The target of another assay is purified 20S proteasomes (Homo sapiens, UniProt P28072+P28074+Q99436). Nature of the assay: 20S proteolytic activity assay. The class given is biochemical. To be noted: 1 μM; for chymotryptic activity of the 20S proteasome (Suc-LLVY-AMC): 30 min. As for the experimental part: Actin was used as a loading control. […] In FIG. 9C-E, purified 20S proteasomes were treated for 30 min with or without compounds (1 μM) prior to the addition of the specific fluorogenic substrate for chymotryptic (9C), tryptic (9D) or PGPH (9E) hydrolytic proteasome capacities. […] DMSO was added to all samples to a final concentration of 0.1% (upper panel). The effect of DMSO is highlighted by including ubiquitin—AMC (0.5 μM) hydrolysis with 2 nM UCH37 lacking DMSO (orange, bottom panel). In FIG. 9H, purified 19S RP (500 nM) in buffer was treated with corresponding compounds 30 min at 37° C. and AMC cleavage was measured with a fluorometer for 20 min. Ubal was used as a positive control.
Release of free AMC by the enzyme reaction was determined by measuring its fluorescence at 380 nm (excitation) and 440 nm (emission). The graphs shown are representative of at least three independent determinations and each data point is the mean of ±SD of triplicate determinations.
20S proteasome cleaves the chymotryptic substrate and releases fluorescent AMC.

Structures are written as SMILES. “Also recorded” adds a separate entry of the source.

T1 sequence (Q16186 whole entry): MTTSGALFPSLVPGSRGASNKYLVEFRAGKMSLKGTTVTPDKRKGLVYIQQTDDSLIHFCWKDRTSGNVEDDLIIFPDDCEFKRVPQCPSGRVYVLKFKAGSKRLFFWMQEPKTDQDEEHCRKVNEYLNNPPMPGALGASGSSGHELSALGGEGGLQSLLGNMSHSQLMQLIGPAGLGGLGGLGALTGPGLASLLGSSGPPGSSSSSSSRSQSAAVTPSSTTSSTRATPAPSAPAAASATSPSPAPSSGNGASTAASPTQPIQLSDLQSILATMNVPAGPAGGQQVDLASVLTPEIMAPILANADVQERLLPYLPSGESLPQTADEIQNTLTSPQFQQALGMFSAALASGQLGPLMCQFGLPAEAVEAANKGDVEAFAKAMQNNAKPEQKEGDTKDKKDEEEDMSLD

With `Cl.N[C@@H](Cc1ccccc1)C(=O)N1CC(=Cc2ccc(Cl)c(Cl)c2)C(=O)C(=Cc2ccc(Cl)c(Cl)c2)C1` [RA190, 3,5-bis(3,4-dichlorobenzylidene)-1-(S-2-amino-3-phenyl)-piperidin-4-one-HCl salt], the “labeling of / competition for RPN13 (42 kDa band)” value on RPN13 is reported as “competitive; also recorded: covalently binds directly to RPN13”. For the same compound, the “chymotryptic activity of the 20S proteasome (Suc-LLVY-AMC)” value at purified 20S proteasomes was “do not”. Moreover, the “CP chymotryptic, tryptic, and PGPH activities” value on purified 20S proteasomes (30 min pre-treatment) is “does not inhibit”.
In the case of `Cl.NCCCC[C@H](NC(=O)OCC1c2ccccc2-c2ccccc21)C(=O)N1C/C(=C\c2ccc(Cl)c(Cl)c2)C(=O)/C(=C/c2ccc(Cl)c(Cl)c2)C1` [RA195], the “labeling of / competition for RPN13 (42 kDa band)” value at RPN13 is “binds covalently to RPN13”. The “chymotryptic activity of the 20S proteasome (Suc-LLVY-AMC)” value at purified 20S proteasomes is listed as “do not”.
